# Data taken from the Kinase Knowledgebase extract (Sharma et al. 2016).
# Target: PIK3CG (human) (UniProt P48736)
# Experiment: Assessment of PIK3CG Kinase Activity
# Sequence of PIK3CG (human) (P48736 whole entry, looked up): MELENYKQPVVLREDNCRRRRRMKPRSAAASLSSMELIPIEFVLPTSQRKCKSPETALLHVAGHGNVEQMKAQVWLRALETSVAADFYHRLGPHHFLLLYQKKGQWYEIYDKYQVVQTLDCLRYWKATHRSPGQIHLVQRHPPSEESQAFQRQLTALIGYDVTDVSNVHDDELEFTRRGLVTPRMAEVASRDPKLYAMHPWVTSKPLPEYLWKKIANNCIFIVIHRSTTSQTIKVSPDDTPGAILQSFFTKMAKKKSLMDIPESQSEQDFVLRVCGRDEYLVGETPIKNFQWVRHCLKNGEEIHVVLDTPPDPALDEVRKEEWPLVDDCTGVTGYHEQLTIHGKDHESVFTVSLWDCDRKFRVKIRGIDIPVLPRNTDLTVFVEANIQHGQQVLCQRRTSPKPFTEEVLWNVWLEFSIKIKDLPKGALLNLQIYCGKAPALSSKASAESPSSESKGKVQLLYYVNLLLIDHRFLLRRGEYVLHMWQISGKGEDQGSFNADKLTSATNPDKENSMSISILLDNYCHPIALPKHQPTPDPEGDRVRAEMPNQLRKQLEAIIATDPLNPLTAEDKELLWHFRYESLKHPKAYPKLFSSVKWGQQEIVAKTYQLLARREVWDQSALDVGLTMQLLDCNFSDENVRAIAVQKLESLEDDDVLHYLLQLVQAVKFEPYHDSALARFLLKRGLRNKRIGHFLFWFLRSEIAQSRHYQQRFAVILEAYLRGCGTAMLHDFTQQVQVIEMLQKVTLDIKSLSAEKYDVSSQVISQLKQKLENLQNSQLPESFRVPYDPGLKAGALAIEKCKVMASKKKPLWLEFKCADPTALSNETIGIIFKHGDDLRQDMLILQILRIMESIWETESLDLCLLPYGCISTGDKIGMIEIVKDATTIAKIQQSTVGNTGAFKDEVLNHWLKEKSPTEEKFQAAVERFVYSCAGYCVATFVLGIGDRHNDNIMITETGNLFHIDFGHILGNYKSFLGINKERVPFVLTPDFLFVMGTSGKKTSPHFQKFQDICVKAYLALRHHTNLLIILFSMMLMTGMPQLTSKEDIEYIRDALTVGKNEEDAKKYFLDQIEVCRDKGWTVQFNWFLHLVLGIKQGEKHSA
row,Structure (SMILES),IC50 [nM]
1,CC(C)c1noc(CCNC(=O)Nc2nc3c(s2)-c2c(c(-c4cncnc4)nn2-c2ccccc2Cl)CC3)n1,< 800
2,CC(=O)N(C)c1cccc(CNC(=O)Nc2nc3c(s2)-c2c(c(C4CC4)nn2-c2ccccc2Cl)CC3)c1,< 800
3,CC(C)(C)OC(=O)CC1(O)CCN(C(=O)Nc2nc3c(s2)-c2c(c(-c4cccnc4)nn2-c2ccccc2Cl)CC3)CC1,< 800
4,CC(C)(C)OC(=O)N1CCCC(NC(=O)Nc2nc3c(s2)-c2c(c(-c4cncnc4)nn2-c2ccccc2Cl)CC3)C1 (stereo not drawn),< 800
5,O=C(NC[C@H]1CCNC1)Nc1nc2c(s1)-c1c(c(-c3cncnc3)nn1-c1ccccc1Cl)CC2,< 800
6,CC(=O)Nc1cccc(CNC(=O)Nc2nc3c(s2)-c2c(c(-c4cccnc4)nn2C2CCN(C)CC2)CC3)c1,< 800
7,CCN(CC)CCNC(=O)Nc1nc2c(s1)-c1c(c(-c3cncnc3)nn1-c1ccccc1Cl)CC2,< 800
8,O=C(NCCN1CCOCC1)Nc1nc2c(s1)-c1c(c(-c3cncnc3)nn1-c1ccccc1F)CC2,< 800
9,CCc1cnc(CCNC(=O)Nc2nc3c(s2)-c2c(c(Nc4ccccn4)nn2-c2ccccc2)CC3)o1,< 800
10,O=C(NCCc1ccccn1)Nc1nc2c(s1)-c1c(c(-c3cncnc3)nn1-c1ccccc1Cl)CC2,< 800
11,CNC(=O)Nc1nc2c(s1)-c1c(c(-c3ccccc3)nn1-c1ccccc1Cl)CC2,< 800
12,O=C(NCCN1CCOCC1)Nc1nc2c(s1)-c1c(c(-c3cncnc3)nn1-c1ccccc1Cl)CC2,< 800
13,O=C(NCCc1cccc(N2CCNC2=O)c1)Nc1nc2c(s1)-c1c(c(-c3cccnc3)nn1-c1ccccc1Cl)CC2,< 800
14,O=C(NCCc1cccnc1)Nc1nc2c(s1)-c1c(c(-c3cccnc3)nn1-c1ccccc1Cl)CC2,< 800
15,CN1CCN(CCCNC(=O)Nc2nc3c(s2)-c2c(c(-c4cncnc4)nn2-c2ccccc2Cl)CC3)CC1,< 800
16,O=C(NCc1cccc(C(=O)NC2CCCCC2)c1)Nc1nc2c(s1)-c1c(c(-c3cccnc3)nn1-c1ccccc1Cl)CC2,< 800
17,CC(C)(C)OC(=O)Nc1cccc(CNC(=O)Nc2nc3c(s2)-c2c(c(-c4cncnc4)nn2-c2ccccc2Cl)CC3)c1,< 800
18,CC(C)c1nnc(CCNC(=O)Nc2nc3c(s2)-c2c(c(C4CC4)nn2-c2ccccc2Cl)CC3)o1,< 800
19,CC(=O)Nc1cccc(CNC(=O)Nc2nc3c(s2)-c2c(c(C4CC4)nn2-c2ccccc2Cl)CC3)c1,< 800
20,Cc1nc[nH]c1-c1cccc(CNC(=O)Nc2nc3c(s2)-c2c(c(-c4cncnc4)nn2-c2ccccc2Cl)CC3)c1,< 800

row,Structure (SMILES),IC50 [nM]
1,COc1cc(CNC(=O)Nc2nc3c(s2)-c2c(c(-c4cncnc4)nn2-c2ccccc2Cl)CC3)cc(OC)c1,< 800
2,CCc1noc(CCNC(=O)Nc2nc3c(s2)-c2c(c(C4CC4)nn2-c2ccccc2Cl)CC3)n1,< 800
3,CN1CCN(CCNC(=O)Nc2nc3c(s2)-c2c(c(-c4cncnc4)nn2-c2ccccc2F)CC3)CC1,< 800
4,CN(C)CC(=O)N1CC[C@H](CNC(=O)Nc2nc3c(s2)-c2c(c(-c4cncnc4)nn2-c2ccccc2Cl)CC3)C1,< 800
5,CC(C)NC(=O)Nc1nc2c(s1)-c1c(c(-c3cccnc3)nn1-c1ccccc1Cl)CC2,< 800
6,NC(=O)c1ccc(CNC(=O)Nc2nc3c(s2)-c2c(c(-c4cncnc4)nn2-c2ccccc2Cl)CC3)cc1,< 800
7,CN(C)CCNC(=O)Nc1nc2c(s1)-c1c(c(-c3cncnc3)nn1-c1ccccc1Cl)CC2,< 800
8,O=C(NCCN1CCCC1=O)Nc1nc2c(s1)-c1c(c(-c3ccccc3)nn1-c1ccccc1Cl)CC2,< 800
9,O=C(Nc1nc2c(s1)-c1c(c(-c3ccccc3)nn1-c1ccccc1Cl)CC2)NC1CCS(=O)(=O)C1 (stereo not drawn),< 800
10,NCCNC(=O)Nc1nc2c(s1)-c1c(c(-c3ccccc3)nn1-c1ccccc1Cl)CC2,< 800
11,O=C1Cc2ccccc2CN1CC1CCN(C(=O)Nc2nc3c(s2)-c2c(c(-c4cccnc4)nn2-c2ccccc2Cl)CC3)C1 (stereo not drawn),< 800
12,O=C(NC[C@H]1CCCN1C(=O)OCc1ccccc1)Nc1nc2c(s1)-c1c(c(-c3cncnc3)nn1-c1ccccc1Cl)CC2,< 800
13,O=C(NCCNS(=O)(=O)c1ccccn1)Nc1nc2c(s1)-c1c(c(-c3ccccc3)nn1-c1ccccc1Cl)CC2,< 800
14,CC(C)c1cnc(CCNC(=O)Nc2nc3c(s2)-c2c(c(-c4cccnc4)nn2-c2ccccc2Cl)CC3)o1,< 800
15,O=C(NCc1cccc(-c2ccccc2)c1)Nc1nc2c(s1)-c1c(c(-c3cncnc3)nn1-c1ccccc1Cl)CC2,< 800
16,COC(=O)N1CCC[C@@H]1CNC(=O)Nc1nc2c(s1)-c1c(c(-c3cncnc3)nn1-c1ccccc1Cl)CC2,< 800
17,CC(C)(C)OC(=O)CCNC(=O)Nc1nc2c(s1)-c1c(c(-c3cccnc3)nn1-c1ccccc1Cl)CC2,< 800
18,CCn1cnc(CCNC(=O)Nc2nc3c(s2)-c2c(c(C4CC4)nn2-c2ccccc2Cl)CC3)c1,< 800
19,NC(=O)c1cccc(CNC(=O)Nc2nc3c(s2)-c2c(c(-c4cccnc4)nn2C2CCN(C4CCCC4)CC2)CC3)c1,< 800
20,O=C(Nc1nc2c(s1)-c1c(c(-c3cccnc3)nn1-c1ccccc1Cl)CC2)N1CCC(NC(=O)C(F)(F)F)C1 (stereo not drawn),< 800

row,Structure (SMILES),IC50 [nM]
1,O=C(NCc1cccc(OC(F)(F)F)c1)Nc1nc2c(s1)-c1c(c(-c3cncnc3)nn1-c1ccccc1Cl)CC2,< 800
2,O=C(NCCCN1CCOCC1)Nc1nc2c(s1)-c1c(c(-c3cncnc3)nn1-c1ccccc1Cl)CC2,< 800
3,Cc1c[nH]c(CCNC(=O)Nc2nc3c(s2)-c2c(c(-c4cccnc4)nn2-c2ccccc2Cl)CC3)n1,< 800
4,CC1CC(c2ccc(O)cc2)CN1C(=O)Nc1nc2c(s1)-c1c(c(-c3cccnc3)nn1-c1ccccc1Cl)CC2 (stereo not drawn),< 800
5,CC(C)(C)OC(=O)N1CCCCC1CNC(=O)Nc1nc2c(s1)-c1c(c(-c3cccnc3)nn1-c1ccccc1Cl)CC2 (stereo not drawn),< 800
6,CN1CCN(Cc2ccc(NC(=O)Nc3nc4c(s3)-c3c(c(-c5cncnc5)nn3-c3ccccc3F)CC4)cc2)CC1,< 800
7,NC(=O)c1cccc(CNC(=O)Nc2nc3c(s2)-c2c(c(-c4cncnc4)nn2-c2ccccc2Cl)CC3)c1,< 800
8,O=C(NC[C@H]1CCNC1)Nc1nc2c(s1)-c1c(c(-c3ccccc3)nn1-c1cccc(Cl)c1)CC2,< 800
9,CCc1noc(CCNC(=O)Nc2nc3c(s2)-c2c(c(-c4ccccc4)nn2-c2cccc(Cl)c2)CC3)n1,< 800
10,CC(C)(C)OC(=O)N1CCC[C@@H]1CNC(=O)Nc1nc2c(s1)-c1c(c(-c3cncnc3)nn1-c1ccccc1F)CC2,< 800
11,O=C(NCc1cccc(CN2CCOCC2)n1)Nc1nc2c(s1)-c1c(c(-c3cncnc3)nn1-c1ccccc1Cl)CC2,< 800
12,O=C(NCCc1nc(C2CC2)no1)Nc1nc2c(s1)-c1c(c(-c3ccccc3)nn1-c1cccc(Cl)c1)CC2,< 800
13,O=C(NCc1cccnc1N1CCCC1)Nc1nc2c(s1)-c1c(c(-c3cncnc3)nn1-c1ccccc1Cl)CC2,< 800
14,O=C(Nc1nc2c(s1)-c1c(cnn1-c1ccccc1)CC2)N1CCCCC1,< 800
15,CCN1CCC[C@H]1CNC(=O)Nc1nc2c(s1)-c1c(c(-c3cccnc3)nn1-c1ccccc1Cl)CC2,< 800
16,CCc1cccc(CNC(=O)Nc2nc3c(s2)-c2c(c(-c4cccnc4)nn2-c2ccccc2Cl)CC3)c1,< 800
17,CN1CCC(n2nc(-c3cccnc3)c3c2-c2sc(NC(=O)NCc4cccc(N(C)C)c4)nc2CC3)CC1,< 800
18,CC(C)(C)OC(=O)N1CCC[C@H]1CNC(=O)Nc1nc2c(s1)-c1c(c(-c3cncnc3)nn1-c1ccccc1F)CC2,< 800
